These results are taken from US7038055B2, “Sulfone derivatives and their use in the treatment of autoimmune diseases and allergies” (SmithKlineBeecham plc, priority 2001, dated 2006).

Usually IC50 stands for the concentration that gives 50% inhibition.

Assay [1] has as its system CD23 cleavage activity (release of soluble CD23) in RPMI 8866 cell plasma membranes. Kind of assay: RPMI 8866 Cell Membrane CD23 Cleavage Activity Assay. Type of assay: biochemical, human. To be noted: RPMI 8866 plasma membranes, 37° C., sCD23 by EIA; read-out: IC50, inhibition of production of sCD23. Here is the method:
Procedure 1: The ability of test compounds to inhibit the release of soluble CD23 was investigated by use of the following procedure.
RPMI 8866 Cell Membrane CD23 Cleavage Activity Assay:
Plasma membranes from RPMI 8866 cells, a human Epstein-Barr virus transformed B-cell line (Sarfati et al., Immunology 60 [1987] 539–547) expressing high levels of CD23 are purified using an aqueous extraction method. Cells resuspended in homogenization buffer (20 mM HEPES pH 7.4, 150 mM NaCl, 1.5 mM MgCl2, 1 mM DTT) are broken by N2 cavitation in a Parr bomb and the plasma membrane fraction mixed with other membranes is recovered by centrifugation at 10,000×g. […]
The fractionated membranes are incubated at 37° C. for times up to 4 hrs to produce fragments of CD23 which are separated from the membrane by filtration in 0.2 micron Durapore filter plates (Millipore) after quenching the assay with a non-selecitve MMP inhibitor, e.g. 5 uM Preparation 1 from WO 95/31457 ([4-(N-Hydroxyamino)-2-(R)-isobutyl-3-(S)-(2-thiophenethiomethyl)succinyl]-(S)-phenylalanine-N-methylamide sodium salt, prepared according to the procedure described in Example 11 of WO 90/05719). sCD23 released from the membrane is determined using the EIA kit from The Binding Site (Birmingham, UK) or a similar one utilising MHM6 anti-CD23 mAb [Rowe et al., Int. […]

The target of assay [2] is T1, MMP-3 (Homo sapiens, UniProt P08254).
T1 construct: purchased Calbiochem
T1 sequence (P08254 100-477, species assumed): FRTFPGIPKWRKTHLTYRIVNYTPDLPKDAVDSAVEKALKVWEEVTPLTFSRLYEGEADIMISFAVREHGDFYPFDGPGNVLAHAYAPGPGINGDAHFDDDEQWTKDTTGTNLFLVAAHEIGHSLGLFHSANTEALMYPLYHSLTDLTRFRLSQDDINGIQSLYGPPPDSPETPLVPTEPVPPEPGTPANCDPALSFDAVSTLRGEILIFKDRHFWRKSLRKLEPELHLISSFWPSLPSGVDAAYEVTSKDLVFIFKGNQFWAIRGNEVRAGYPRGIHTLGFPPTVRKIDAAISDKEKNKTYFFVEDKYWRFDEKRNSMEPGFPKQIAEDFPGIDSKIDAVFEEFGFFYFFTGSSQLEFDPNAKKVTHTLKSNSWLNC
Put plainly: General MMP Inhibition Assay, fluorescence quench (MMP-3). Type of assay: biochemical. The note with it: room temperature. Here is the method:
(§1) General MMP Inhibition Assays:
(§2) Inhibition of matrix metalloprotease activity was determined using a fluorescence quench assay with appropriate substrate. For example, MMP activity was determined using MMP activated using trypsin, according to Lark et al, Connective Tissue Res. 25, 52 (1990). The MMP is incubated at room temperature in a microtitre plate in a total volume of 100 ul, containing 0.15 M Tris Cl, 15 mM CaCl2, 0.2 M NaCl, pH 7.6 (assay buffer); inhibitor at concentrations up to 100 uM, with no more than 2% DMSO final concentration, 10 uM substrate (such as SDP-3815-PI for MMP-1, Peptides International). The MMP concentration is <10 nM, and determined empirically with the appropriate substrate to give at least a 20-fold increase in fluorescence emission in 30 min. Fluorescent excitation wavelength was 355 nm, emission wavelength 400–460 nm, and data points are collected to generate slope (change in fluorescence with time). Percent inhibition for each concentration is calculated from the slope at time zero, and IC50 values from the concentration dependence. MMP-1, 2, 3, 7, 9, 13, 14 may all be assayed in the same manner, using commercially available substrates reported to be effective for each enzyme. Enzymes were obtained from Calbiochem and activated using the same trypsin method.

Assay [3] concerns the target T2, MMP-13 (Homo sapiens, UniProt P45452).
T2 construct: purchased Calbiochem
Kind of assay: General MMP Inhibition Assay, fluorescence quench (MMP-13). Type of assay: biochemical. To be noted: room temperature. Here is the method:
as §1, §2

Assay [4] deals with T3, human recombinant collagenase (Homo sapiens, UniProt P03956).
T3 construct: made in house; host or cells: E. coli
T3 sequence (P03956 100-469): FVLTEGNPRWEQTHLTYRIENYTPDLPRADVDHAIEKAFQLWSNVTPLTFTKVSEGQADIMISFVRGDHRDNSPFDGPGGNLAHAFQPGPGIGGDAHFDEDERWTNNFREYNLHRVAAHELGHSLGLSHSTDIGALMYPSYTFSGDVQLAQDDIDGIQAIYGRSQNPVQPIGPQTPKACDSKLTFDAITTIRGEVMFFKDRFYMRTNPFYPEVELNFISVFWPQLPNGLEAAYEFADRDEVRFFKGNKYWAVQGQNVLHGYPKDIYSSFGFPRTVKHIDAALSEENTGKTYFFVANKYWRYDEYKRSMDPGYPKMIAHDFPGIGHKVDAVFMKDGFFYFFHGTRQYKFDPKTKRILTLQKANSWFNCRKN
Kind of assay: Collagenase Inhibition Assay. The class given is biochemical. To be noted: 37° C., 18 h, 3H type 1 bovine collagen; read-out: IC50, collagenase inhibition (procedure 2). As to the method:
Procedure 2: The ability of test compounds to inhibit matrix metalloproteases was investigated using the following procedures.
Collagenase Inhibition Assay:
The potency of compounds to act as inhibitors of collagenase was determined by the method of Cawston and Barrett (Anal. Biochem. 99, 340–345, 1979), hereby incorporated by reference, whereby a 1 mM solution of the inhibitor being tested or dilutions thereof, was incubated at 37° C. for 18 h with collagen and human recombinant collagenase, from synovial fibroblasts cloned, expressed and purified from E. Coli, (buffered with 150 mM Tris, pH 7.6, containing 15 mM calcium chloride, 0.05% Brij 35, 200 mM sodium chloride and 0.02% sodium azide). The collagen was acetylated ^3H type 1 bovine collagen prepared by the method of Cawston and Murphy (methods in Enzymology 80, 711, 1981) The samples were centrifuged to sediment undigested collagen and an aliquot of the radioactive supernatant removed for assay on a scintillation counter as a measure of hydrolysis. The collagenase activity in the presence of 1 mM inhibitor, or dilution thereof, was compared to activity in a control devoid of inhibitor and the results reported as that concentration effecting 50% of the collagenase (IC50).

As to `CO[C@H](C)[C@@H](CS(=O)(=O)Cc1cnc2ccccc2c1)N(O)C=O` [Example 1, N-[(2S,3R)-3-methoxy-1-(quinolin-3-yl-methanesulfonyl)butan-2-yl]-hydroxyformamide], the IC50 is 20 nM in assay [1], greater than 10000 nM in assay [2], 2600 nM in assay [3] and greater than 10000 nM in assay [4].

In turn, `CO[C@@H](C)C(CS(=O)(=O)Cc1cnc2ccccc2c1)N(O)C=O` (stereo in doubt) [Example 2, N-[(2R,3S)-3-methoxy-1-(quinolin-3-yl-methanesulfonyl)butan-2-yl]-hydroxyformamide] gave an IC50 in assay [3] of 3000 nM.
